Measurements reported in publication PMC7211202 (Investigational New Drugs, 2019).

Experiment: Patient incidence of adverse events (CTCAE version 4.0)
Format: in vivo
Settings: dose escalation
From the text: Each patient was monitored for 21 days for the occurrence of dose-limiting toxicities (DLTs), defined as febrile neutropenia, neutropenic infection, grade 4 neutropenia lasting >7 days, grade ≥ 3 thrombocytopenia lasting >7 days (solid tumors only), grade 3 thrombocytopenia with grade ≥ 2 bleeding (solid tumors only), grade 3 or 4 thrombocytopenia with grade > 1 bleeding (multiple myeloma only), grade 4 thrombocytopenia (solid tumors only), or grade 4 thrombocytopenia lasting >14 days (multiple myeloma only), or as grade ≥ 3 nausea, vomiting, or diarrhea after support; grade 3 fatigue lasting >7 days; any other grade ≥ 3 adverse event (AE); grade ≥ 3 kidney injury (multiple myeloma only), or treatment-related AEs not returning to grade ≤ 1 (solid tumors only) per Common Terminology Criteria for Adverse Events (CTCAE), version 4.0. The MTD was defined as the maximum dose, at which the probability of a DLT was ≤25% in Part 1A and ≤ 33% in Parts 1B and 1C. Treatment continued until disease progression, intolerable toxicity, or withdrawal of consent.
AEs were recorded for all enrolled patients.

CC(C)[C@@H](CS(=O)(=O)C(C)C)N1C(=O)[C@@](C)(CC(=O)O)C[C@H](c2cccc(Cl)c2)[C@H]1c1ccc(Cl)cc1 [AMG 232]
3 (43) n (%): Patients with any treatment-emergent serious AE (120 mg (n = 7)) | Treatment-related AE: Diarrhea (120 mg (n = 7)) | Treatment-related AE: Fatigue (120 mg (n = 7)) | Treatment-related AE: Nausea (120 mg (n = 7))
7 (100) n (%): Patients with any treatment-emergent AE (120 mg (n = 7)) | Patients with any treatment-related AE (120 mg (n = 7))
4 (50) n (%): Patients with any treatment-emergent serious AE (240 mg (n = 8)) | Treatment-related AE: Fatigue (240 mg (n = 8))
8 (100) n (%): Patients with any treatment-emergent AE (240 mg (n = 8)) | Patients with any treatment-related AE (240 mg (n = 8))
2 (29) n (%): Treatment-related AE: Decrease appetite (120 mg (n = 7)) | Treatment-related AE: Vomiting (120 mg (n = 7))
4 (100) n (%): Patients with any treatment-emergent AE (60 mg (n = 4)) | Patients with any treatment-emergent AE (300 mg (n = 4)) | Patients with any treatment-related AE (300 mg (n = 4)) | Treatment-related AE: Diarrhea (300 mg (n = 4))
1 (13) n (%): Treatment-related AE: Anemia (240 mg (n = 8)) | Treatment-related AE: Asthenia (240 mg (n = 8)) | Treatment-related AE: Thrombocytopenia (240 mg (n = 8)) | Treatment-related AE: Upper abdominal pain (240 mg (n = 8)) | Treatment-related serious AE: Abdominal pain (grade 2) (240 mg (n = 8)) | Treatment-related serious AE: Diarrhea (240 mg (n = 8)) | Treatment-related serious AE: Diarrhea, Grade 2 (240 mg (n = 8)) | Treatment-related serious AE: Nausea (grade 3) (240 mg (n = 8)) | Treatment-related serious AE: Non-cardiac chest pain (grade 3) (240 mg (n = 8)) | Treatment-related serious AE: Vomiting (240 mg (n = 8)) | Treatment-related serious AE: Vomiting, Grade 3 (240 mg (n = 8))
1 (25) n (%): Treatment-related AE: Decrease appetite (60 mg (n = 4)) | Treatment-related AE: Diarrhea (60 mg (n = 4)) | Treatment-related AE: Fatigue (60 mg (n = 4)) | Treatment-related AE: Abdominal pain (300 mg (n = 4)) | Treatment-related AE: Asthenia (300 mg (n = 4)) | Treatment-related AE: Decrease appetite (300 mg (n = 4)) | Treatment-related AE: Dysgeusia (300 mg (n = 4)) | Treatment-related AE: Nausea (300 mg (n = 4))
6 (75) n (%): Treatment-related AE: Diarrhea (240 mg (n = 8))
5 (63) n (%): Treatment-related AE: Nausea (240 mg (n = 8)) | Treatment-related AE: Vomiting (240 mg (n = 8))
0 n (%): Treatment-related serious AE: Dehydration (grade 2) (30 mg (n = 3)) | Treatment-related serious AE: Diarrhea (30 mg (n = 3)) | Treatment-related serious AE: Diarrhea, Grade 2 (30 mg (n = 3)) | Treatment-related serious AE: Diarrhea, Grade 3 (30 mg (n = 3)) | Treatment-related serious AE: Febrile neutropenia (grade 3) (30 mg (n = 3)) | Treatment-related serious AE: Hematemesis (grade 3) (30 mg (n = 3)) | Treatment-related serious AE: Nausea (grade 3) (30 mg (n = 3)) | Treatment-related serious AE: Neutropenia (grade 4) (30 mg (n = 3)) | Treatment-related serious AE: Non-cardiac chest pain (grade 3) (30 mg (n = 3)) | Treatment-related serious AE: Thrombocytopenia (grade 4) (30 mg (n = 3)) | Treatment-related serious AE: Vomiting (30 mg (n = 3)) | Treatment-related serious AE: Vomiting, Grade 2 (30 mg (n = 3)) | Treatment-related serious AE: Vomiting, Grade 3 (30 mg (n = 3)) | Patients with any treatment-emergent serious AE (60 mg (n = 4)) | Patients with any treatment-related AE, Grade 3 (60 mg (n = 4)) | Patients with any treatment-related AE, Grade 4 (60 mg (n = 4)) | Patients with any treatment-related AE, Grade 5 (60 mg (n = 4)) | Patients with any treatment-related serious AE (60 mg (n = 4)) | Treatment-related AE: Abdominal pain (60 mg (n = 4)) | Treatment-related AE: Anemia (60 mg (n = 4)) | Treatment-related AE: Asthenia (60 mg (n = 4)) | Treatment-related AE: Dysgeusia (60 mg (n = 4)) | Treatment-related AE: Myalgia (60 mg (n = 4)) | Treatment-related AE: Neutropenia (60 mg (n = 4)) | Treatment-related AE: Thrombocytopenia (60 mg (n = 4)) | Treatment-related AE: Upper abdominal pain (60 mg (n = 4)) | Treatment-related AE: Vomiting (60 mg (n = 4)) | Treatment-related serious AE: Abdominal pain (grade 2) (60 mg (n = 4)) | Treatment-related serious AE: Dehydration (grade 2) (60 mg (n = 4)) | Treatment-related serious AE: Diarrhea (60 mg (n = 4)) | Treatment-related serious AE: Diarrhea, Grade 2 (60 mg (n = 4)) | Treatment-related serious AE: Diarrhea, Grade 3 (60 mg (n = 4)) | Treatment-related serious AE: Febrile neutropenia (grade 3) (60 mg (n = 4)) | Treatment-related serious AE: Hematemesis (grade 3) (60 mg (n = 4)) | Treatment-related serious AE: Nausea (grade 3) (60 mg (n = 4)) | Treatment-related serious AE: Neutropenia (grade 4) (60 mg (n = 4)) | Treatment-related serious AE: Non-cardiac chest pain (grade 3) (60 mg (n = 4)) | Treatment-related serious AE: Thrombocytopenia (grade 4) (60 mg (n = 4)) | Treatment-related serious AE: Vomiting (60 mg (n = 4)) | Treatment-related serious AE: Vomiting, Grade 2 (60 mg (n = 4)) | Treatment-related serious AE: Vomiting, Grade 3 (60 mg (n = 4)) | Patients with any treatment-related AE, Grade 5 (120 mg (n = 7)) | Patients with any treatment-related serious AE (120 mg (n = 7)) | Treatment-related AE: Abdominal pain (120 mg (n = 7)) | Treatment-related AE: Anemia (120 mg (n = 7)) | Treatment-related AE: Asthenia (120 mg (n = 7)) | Treatment-related AE: Dysgeusia (120 mg (n = 7)) | Treatment-related AE: Neutropenia (120 mg (n = 7)) | Treatment-related serious AE: Abdominal pain (grade 2) (120 mg (n = 7)) | Treatment-related serious AE: Dehydration (grade 2) (120 mg (n = 7)) | Treatment-related serious AE: Diarrhea (120 mg (n = 7)) | Treatment-related serious AE: Diarrhea, Grade 2 (120 mg (n = 7)) | Treatment-related serious AE: Diarrhea, Grade 3 (120 mg (n = 7)) | Treatment-related serious AE: Febrile neutropenia (grade 3) (120 mg (n = 7)) | Treatment-related serious AE: Hematemesis (grade 3) (120 mg (n = 7)) | Treatment-related serious AE: Nausea (grade 3) (120 mg (n = 7)) | Treatment-related serious AE: Neutropenia (grade 4) (120 mg (n = 7)) | Treatment-related serious AE: Non-cardiac chest pain (grade 3) (120 mg (n = 7)) | Treatment-related serious AE: Thrombocytopenia (grade 4) (120 mg (n = 7)) | Treatment-related serious AE: Vomiting (120 mg (n = 7)) | Treatment-related serious AE: Vomiting, Grade 2 (120 mg (n = 7)) | Treatment-related serious AE: Vomiting, Grade 3 (120 mg (n = 7)) | Patients with any treatment-related AE, Grade 4 (240 mg (n = 8)) | Patients with any treatment-related AE, Grade 5 (240 mg (n = 8)) | Treatment-related AE: Myalgia (240 mg (n = 8)) | Treatment-related AE: Neutropenia (240 mg (n = 8)) | Treatment-related serious AE: Dehydration (grade 2) (240 mg (n = 8)) | Treatment-related serious AE: Diarrhea, Grade 3 (240 mg (n = 8)) | Treatment-related serious AE: Febrile neutropenia (grade 3) (240 mg (n = 8)) | Treatment-related serious AE: Hematemesis (grade 3) (240 mg (n = 8)) | Treatment-related serious AE: Neutropenia (grade 4) (240 mg (n = 8)) | Treatment-related serious AE: Thrombocytopenia (grade 4) (240 mg (n = 8)) | Treatment-related serious AE: Vomiting, Grade 2 (240 mg (n = 8)) | Patients with any treatment-related AE, Grade 5 (300 mg (n = 4)) | Treatment-related AE: Anemia (300 mg (n = 4)) | Treatment-related AE: Myalgia (300 mg (n = 4))
2 (50) n (%): Patients with any treatment-emergent serious AE (300 mg (n = 4)) | Patients with any treatment-related AE, Grade 4 (300 mg (n = 4)) | Patients with any treatment-related serious AE (300 mg (n = 4)) | Treatment-related AE: Fatigue (300 mg (n = 4)) | Treatment-related AE: Neutropenia (300 mg (n = 4))
1 (14) n (%): Patients with any treatment-related AE, Grade 3 (120 mg (n = 7)) | Patients with any treatment-related AE, Grade 4 (120 mg (n = 7)) | Treatment-related AE: Myalgia (120 mg (n = 7)) | Treatment-related AE: Thrombocytopenia (120 mg (n = 7)) | Treatment-related AE: Upper abdominal pain (120 mg (n = 7))
2 (25) n (%): Patients with any treatment-related serious AE (240 mg (n = 8)) | Treatment-related AE: Abdominal pain (240 mg (n = 8)) | Treatment-related AE: Decrease appetite (240 mg (n = 8)) | Treatment-related AE: Dysgeusia (240 mg (n = 8))
3 (75) n (%): Patients with any treatment-related AE (60 mg (n = 4)) | Treatment-related AE: Nausea (60 mg (n = 4)) | Patients with any treatment-related AE, Grade 3 (300 mg (n = 4)) | Treatment-related AE: Thrombocytopenia (300 mg (n = 4))
3 (38) n (%): Patients with any treatment-related AE, Grade 3 (240 mg (n = 8))
